Experimental data reported in EP0697214A1, “Liposomal cyclosporin pharmaceutical formulations” (VESTAR, INC., priority 1994, dated 1996).

How the values were obtained:
[1] = test system: resistant L1210 murine leukemia cells; assay: Multiple drug resistance test, 3H-thymidine uptake; format: cell-based; conditions: Mus musculus, daunorubicin alone, 24 hours, read-out: IC₅₀ in Resistant Cells
Description: (§1) Multiple drug resistance (MDR) was tested in vitro using resistant and sensitive L1210 murine leukemia cells. Liposomal Cyclosporine was obtained as described in Example 13 (19:3:1 formulation HEPC:DMPG:Cyclosporine) except that a spray dried lipid powder was used and the unilamellar vesicles were formed through homogenization. Daunorubicin, Cyclosporine-CreL, and liposomal Cyclosporine were diluted in RPMI-1640. The final concentration of daunorubicin in each well was 0, 0.3, 1, 3, 10, 30, 100 or 1000 ng/ml. The final concentration of Cyclosporine-CreL in each well was 0, 10, 70, 300, 1,250, 5,000, 20,000, 80,000, 160,000, 310,000, 620,000, or 1,050,000 ng/ml. The final concentration of liposomal Cyclosporine in each well was 0, 10, 70, 300, 1,250, 5,000, 20,000, 80,000, 160,000, 310,000, 620,000, or 1,050,000 ng/ml. Fifty microliters of each daunorubicin concentration was added to one well of a flat bottom 96-well culture plate. Fifty microliters of the appropriate concentration of Cyclosporine-CreL or liposomal Cyclosporine were also added to each well. Each drug combination was tested in triplicate. […]
(§2) After 20 hours of incubation, the cells were pulsed with 0.5µCu of³H-Thymidine per well. […] The cells in each well were then harvested using a Skatron Harvester and counted in a beta liquid scintillation counter (LKB). The IC₅₀ was calculated using a linear regression treatment of the data.

[2] = test system: sensitive L1210 murine leukemia cells; assay: Multiple drug resistance test, 3H-thymidine uptake; format: cell-based; conditions: Mus musculus, daunorubicin alone, 24 hours, read-out: IC₅₀ in Sensitive Cells
Description: as §1, §2

For `COc1cccc2c1C(=O)c1c(O)c3c(c(O)c1C2=O)C[C@@](O)(C(C)=O)C[C@@H]3O[C@H]1C[C@H](N)[C@H](O)[C@H](C)O1` [Daunorubicin], the IC50 [1] was 0.722 µg/mL and the IC50 [2] was 0.47 µg/mL.
